Results on 22 molecules are retold here after patent US20250042886A1, “BIS(HETERO)ARYL THIOETHER OXADIAZINES AS FUNGICIDAL COMPOUNDS” (Bayer Aktiengesellschaft, priority 2021, published 2025).

Series [1] is described as follows: Measurement of Log P values by HPLC on reversed phase columns (EEC directive 79/831 Annex V.A8). In kind it is physicochemical. To be noted: Table 1, compounds of formula (I); method [a]: LC-UV, acidic range, 0.1% formic acid in water and acetonitrile.
In another series the test system is Pyricularia oryzae. Nature of the series: microbe, parasite or virus in culture. Type of series: cell-based. Conditions: 120 h; for inhibition at 20 ppm: read-out: efficacy (inhibition of fungal growth), 20 ppm of active ingredient, liquid culture, 5 days incubation.
Series [2] has as its system Colletotrichum lindemuthianum. In words: Colletotrichum lindemuthianum in vitro cell test. Type of series: cell-based. To be noted: 144 h, liquid culture, 6 days incubation, read-out: efficacy (inhibition of fungal growth); for inhibition at 20 ppm: 20 ppm of active ingredient; for inhibition at 50 µM: 50 μMol/l of active ingredient. The method, then: (§1) B-7. Colletotrichum lindemuthianum In Vitro Cell Test • Solvent: DMSO • Culture medium: 14.6 g anhydrous D-glucose (VWR), 7.1 g Mycological Peptone (Oxoid), 1.4 g granulated Yeast Extract (Merck), QSP 1 liter • Inoculum: spores suspension Fungicides were solubilized in DMSO and the solution used to prepare the required range of concentrations. […] A spore suspension of C. lindemuthianum was prepared and diluted to the desired spore density. Fungicides were evaluated for their ability to inhibit spores germination and mycelium growth in liquid culture assay. The compounds were added in the desired concentration to the culture medium with spores. After 6 days incubation, fungi-toxicity of compounds was determined by spectrometric measurement of mycelium growth. Inhibition of fungal growth was determined by comparing the absorbance values in wells containing the fungicides with the absorbance in control wells without fungicides.

Series [3] has as its system Botrytis cinerea. In words: Botrytis cinerea in vitro cell test. To be noted: 144 h, liquid culture, 6 days incubation, read-out: efficacy (inhibition of fungal growth); for inhibition at 20 ppm: 20 ppm of active ingredient; for inhibition at 50 µM: 50 μMol/l of active ingredient. Type of series: cell-based. Here is the method:
B-9. Botrytis cinerea In Vitro Cell Test • Solvent: DMSO • Culture medium: 1 g KH2PO4 (VWR), 1 g K2HPO4 (VWR), 0.5 g Urea (VWR), 3 g KNO3 (Prolabo), 10 g saccharose (VWR), 0.5 g MgSO4, 7H2O (Sigma), 0.07 g CaCl2, 2H2O (Prolabo), 0.2 mg MnSO4, H2O (Sigma), 0.6 mg CuSO4, 5H2O (Sigma), 7.9 mg ZnSO4, 7H2O (Sigma), 0.1 mg H3BO3 (Merck), 0.14 mg NaMoO4, 2H2O (Sigma), 2 mg thiamine (Sigma), 0.1 mg biotine (VWR), 4 mg FeSO4, 7H2O (Sigma), QSP 1 liter • Inoculum: spore suspension Fungicides were solubilized in DMSO and the solution used to prepare the required range of concentrations. […] A spore suspension of B. cinerea was prepared and diluted to the desired spore density. Fungicides were evaluated for their ability to inhibit spore germination and mycelium growth in liquid culture assay. The compounds were added in the desired concentration to the culture medium with spores. After 6 days incubation, fungi-toxicity of compounds was determined by spectrometric measurement of mycelium growth. Inhibition of fungal growth was determined by comparing the absorbance values in wells containing the fungicides with the absorbance in control wells without fungicides.

A further series concerns Pyrenophora teres. In words: Pyrenophora teres in vitro cell test. Type of series: cell-based. To be noted: 144 h, liquid culture, 6 days incubation, read-out: efficacy (inhibition of fungal growth). The method, then: as §1, with “B-8. Pyrenophora teres In” for “B-7. Colletotrichum lindemuthianum In”, “Inoculum: spore” for “Inoculum: spores”, “of P. teres” for “of C. lindemuthianum”, “inhibit spore” for “inhibit spores”

Series [4] concerns Botrytis cinerea. Nature of the series: In vivo preventive test on Botrytis cinerea (grey mould). To be noted: 500 ppm of active ingredient, sprayed on young gherkin or cabbage plants 24 h before inoculation, evaluated 4 to 5 days after inoculation, read-out: efficacy. Here is the method:
The active ingredients were made soluble and homogenized in a mixture of Dimethyl sulfoxide/Acetone//Tween® 80 and then diluted in water to the desired concentration. The young plants of gherkin or cabbage were treated by spraying the active ingredient prepared as described above. Control plants were treated only with an aqueous solution of Acetone/Dimethyl sulfoxide/Tween® 80. After 24 hours, the plants were contaminated by spraying the leaves with an aqueous suspension of Botrytis cinerea spores.

The next series relates to Fusarium culmorum. Nature of the series: Fusarium culmorum in vitro cell test. In kind it is cell-based. Conditions: 120 h, 50 μMol/l of active ingredient, liquid culture, 5 days incubation, read-out: efficacy (inhibition of fungal growth). Here is the method:
B-10. Fusarium culmorum In Vitro Cell Test • Solvent: DMSO • Culture medium: 1 g KH2PO4 (VWR), 1 g K2HPO4 (VWR), 0.5 g Urea (VWR), 3 g KNO3 (Prolabo), 10 g saccharose (VWR), 0.5 g MgSO4, 7H2O (Sigma), 0.07 g CaCl2, 2H2O (Prolabo), 0.2 mg MnSO4, H2O (Sigma), 0.6 mg CuSO4, 5H2O (Sigma), 7.9 mg ZnSO4, 7H2O (Sigma), 0.1 mg H3BO3 (Merck), 0.14 mg NaMoO4, 2H2O (Sigma), 2 mg thiamine (Sigma), 0.1 mg biotine (VWR), 4 mg FeSO4, 7H2O (Sigma), QSP 1 liter • Inoculum: spores suspension
Fungicides were solubilized in DMSO and the solution used to prepare the required range of concentrations. The final concentration of DMSO used in the assay was ≤1%.
A spore suspension of F. culmorum was prepared and diluted to the desired spore density.
Fungicides were evaluated for their ability to inhibit spore germination and mycelium growth in liquid culture assay. The compounds were added in the desired concentration to the culture medium with spores. After 5 days incubation, fungi-toxicity of compounds was determined by spectrometric measurement of mycelium growth. Inhibition of fungal growth was determined by comparing the absorbance values in wells containing the fungicides with the absorbance in control wells without fungicides.

Regarding `Cc1ccc(CC2CON=C(c3cc(Cl)nnc3S(=O)(=O)c3cccc(C(F)(F)F)c3)N2)c(C)c1` (racemic) [Compound I-001, (5RS)-3-(6-chloro-3-{[3-(trifluoromethyl)phenyl]sulfonyl}pyridazin-4-yl)-5-(2,4-dimethylbenzyl)-5,6-dihydro-4H-1,2,4-oxadiazine], the chromatographic logP in series [1] is 4.24. Further, the inhibition at 20 ppm with Pyricularia oryzae was in the range of 90 to 100%.

In series [1], `COc1cccc(Sc2cnc(Cl)cc2C2=NOC[C@H](Cc3ccc(Cl)cc3Cl)N2)c1` (racemic) [Compound I-002] yielded a chromatographic logP of 4.51. The inhibition at 20 ppm with Pyricularia oryzae was 70 to 79%; in series [2] it was 90 to 100%; in the series with Botrytis cinerea [3] it was 90 to 100%.

With `FC(F)(F)Oc1cccc(Sc2cnc(Cl)cc2C2=NOC[C@H](Cc3ccc(Cl)cc3Cl)N2)c1` (racemic) [Compound I-020], the chromatographic logP in series [1] was determined as 5.13. The inhibition at 20 ppm in series [2] is 90 to 100%.

For `Cc1ccc(C[C@H]2CON=C(c3c(Sc4cccc(OC(F)(F)F)c4)cnc4ccccc34)N2)c(C)c1` (racemic) [Compound I-025], in series [1], the chromatographic logP came out at 4.73. Moreover, the inhibition at 20 ppm (in series [2]; with Botrytis cinerea [3]) was 90 to 100% throughout.

`Cc1cccc(Sc2nnc(Cl)cc2C2=NOC[C@@H](Cc3ccc(Cl)cc3Cl)N2)c1` (racemic) [Compound I-028]: the LogP in series [1] was 4.56^[a]. For the same molecule, the inhibition at 20 ppm with Pyricularia oryzae was 70 to 79%; in series [2], 80 to 89%; in the series on Pyrenophora teres (20 ppm of active ingredient) it was 90 to 100%.

On to `COc1cccc(Sc2nnc(Cl)cc2C2=NOC[C@@H](Cc3ccc(Cl)cc3Cl)N2)c1` (racemic) [Compound I-034], for which the chromatographic logP in series [1] worked out at 4.3. Further, the results for the inhibition at 20 ppm (in the series with Pyricularia oryzae; in series [2]; in the series on Botrytis cinerea [3]) were 70 to 79%, 90 to 100% and 90 to 100%, respectively.

In turn, `Cc1ccc([C@H]2CON=C(c3c(Sc4ccc(Cl)c(Cl)c4)nnc4ccccc34)N2)s1` (racemic) [Compound I-038] displayed a chromatographic logP in series [1] of 4.04. For the same molecule, the pest or weed control at 500 ppm in the series on Botrytis cinerea [4] fell in the range of 70 to 79%. The inhibition at 50 µM in the series on Botrytis cinerea [3] lay in the range of 90 to 100%.

In series [1], `CCOc1cccc(Sc2nnc3ccccc3c2C2=NOC[C@H](c3ccc(C)s3)N2)c1` (racemic) [Compound I-040] had a chromatographic logP of 3.55. The inhibition at 50 µM in series [2] lay within 90 to 100%; in the series on Botrytis cinerea [3] it was 70 to 79%; in the series with Fusarium culmorum, 80 to 89%.

In series [1], `Cc1ccc([C@@H]2CON=C(c3c(Sc4ccccc4C)nnc(C)c3C)N2)s1` (racemic) [Compound I-045] came in with a chromatographic logP of 2.94. In the series on Botrytis cinerea [4], the pest or weed control at 500 ppm lay within 80 to 89%. For the same molecule, the inhibition at 50 µM with Botrytis cinerea [3] is 80 to 89%.

Molecule `CCOc1cccc(Sc2nnc(C)c(C)c2C2=NOC[C@@H](c3cc(C)sc3C)N2)c1` (racemic) [Compound I-046] displayed a chromatographic logP in series [1] of 3.44. For the same molecule, in series [2], the inhibition at 50 µM is 80 to 89%.

`Cc1cc([C@@H]2CON=C(c3c(Sc4cccc(OC(F)(F)F)c4)nnc(C)c3C)N2)c(C)s1` (racemic) [Compound I-047] came in with a chromatographic logP in series [1] of 3.83. Moreover, in series [2], the inhibition at 50 µM lay within 90 to 100%.

`Cc1ccc([C@H]2CON=C(c3c(Sc4ccc(F)cc4F)nnc4ccccc34)N2)s1` (racemic) [Compound I-048]: the chromatographic logP in series [1] is 3.4. The pest or weed control at 500 ppm in the series with Botrytis cinerea [4] lay in the range of 90 to 100%. Further, the inhibition at 50 µM in the series on Botrytis cinerea [3] fell in the range of 90 to 100%.

As for `Cc1ccc([C@@H]2CON=C(c3c(Sc4cccc(OC(F)(F)F)c4)nnc(C)c3C)N2)s1` (racemic) [Compound I-055], the chromatographic logP in series [1] turned out to be 3.48. Moreover, the pest or weed control at 500 ppm in the series on Botrytis cinerea [4] fell in the range of 70 to 79%. The inhibition at 50 µM in series [2] fell in the range of 90 to 100%; in the series on Botrytis cinerea [3], 80 to 89%.

As to `CCOc1cccc(Sc2nnc(C)c(C)c2C2=NOC[C@@H](c3ccc(C)s3)N2)c1` (racemic) [Compound I-074], in series [1], the chromatographic logP came to 3.09. Further, the inhibition at 50 µM in series [2] was 90 to 100%.

The molecule `Cc1ccc([C@H]2CON=C(c3c(Sc4ccc(F)c(Cl)c4)nnc(C)c3C)N2)s1` (racemic) [Compound I-083] registered a chromatographic logP in series [1] of 3.26. Further, the inhibition at 50 µM (in series [2]; in the series on Botrytis cinerea [3]) was 90 to 100% each time.

Take `COc1cccc(Sc2nnc(C)c(C)c2C2=NOC[C@@H](c3ccc(C)s3)N2)c1` (racemic) [Compound I-084]: in series [1], the chromatographic logP stood at 2.77. In addition, the inhibition at 50 µM in series [2] fell in the range of 90 to 100%; with Botrytis cinerea [3] it was 70 to 79%.

The molecule `Cc1ccc([C@H]2CON=C(c3c(Sc4ccc(F)c(F)c4)nnc(C)c3C)N2)s1` (racemic) [Compound I-085] registered a chromatographic logP in series [1] of 2.99. Also, the pest or weed control at 500 ppm in the series with Botrytis cinerea [4] lay in the range of 90 to 100%. Moreover, the values for the inhibition at 50 µM with Botrytis cinerea [3] and with Fusarium culmorum were 90 to 100% and 70 to 79%, respectively.

Molecule `Cc1cc([C@@H]2CON=C(c3c(Sc4cccc(C(F)(F)F)c4)nnc(C)c3C)N2)c(C)s1` (racemic) [Compound I-086, (5R,S)-(2,5-dimethyl-3-thienyl)-3-(5,6-dimethyl-3-{[3-(trifluoromethyl)phenyl]sulfanyl}pyridazin-4-yl)-5,6-dihydro-4H-1,2,4-oxadiazine] showed a chromatographic logP in series [1] of 3.72. For the same molecule, the inhibition at 50 µM in the series on Pyricularia oryzae (read-out: efficacy (inhibition of fungal growth), 50 μMol/l of active ingredient, liquid culture, 5 days incubation) lay within 70 to 79%; in series [2], 90 to 100%; in the series with Pyrenophora teres (50 μMol/l of active ingredient) it was 90 to 100%; in the series on Botrytis cinerea [3], 90 to 100%.

Regarding `Cc1ccc(Sc2nnc(C)c(C)c2C2=NOC[C@@H](c3cc(C)sc3C)N2)cc1` (racemic) [Compound I-099], the chromatographic logP in series [1] was 3.36. Besides, the pest or weed control at 500 ppm in the series on Botrytis cinerea [4] lay within 70 to 79%. The inhibition at 50 µM in series [2] lay within 70 to 79%; in the series on Botrytis cinerea [3] it was 80 to 89%.

Regarding `Cc1ccc([C@@H]2CON=C(c3c(Sc4cccc5ccccc45)nnc4ccccc34)N2)s1` (racemic) [Compound I-102], the chromatographic logP in series [1] was found to be 3.8. The inhibition at 50 µM (in series [2]; in the series with Botrytis cinerea [3]) was 80 to 89% throughout.

`Cc1ccc(Sc2nnc(C)c(C)c2C2=NOC[C@@H](c3ccc(C)s3)N2)c(C)c1` (racemic) [Compound I-126]: in series [1], the chromatographic logP came out at 3.28. The inhibition at 50 µM in series [2] lay in the range of 70 to 79%.

In turn, `Cc1cccc(Sc2nnc(C)c(C)c2C2=NOC[C@H](c3ccc(C)s3)N2)n1` (racemic) [Compound I-127] returned a chromatographic logP in series [1] of 2.21. For the same molecule, the pest or weed control at 500 ppm in the series on Botrytis cinerea [4] fell in the range of 80 to 89%.

What is called chromatographic logP is a lipophilicity value derived from retention on a column. Low readings indicate a more hydrophilic compound, high ones a more lipophilic compound.
